Results published in patent publication US20210388018A1, “METHYL AND ETHYL NICOTINATE-RIBOSIDE-5-PHOSPHATES, PREPARATION THEREOF AND METHODS OF USE THEREOF” (Cornell University, priority 2018, published 2021).
“And” between values parts separate entries of the source, which are not always exact repeats. Equal values may be shown once.

Assays:
[1] = tested on: tissue NAD concentrations; experiment: Tissue NAD concentrations in mice 4 h after i.p. injection (cycling assay); assay type: in vivo; conditions: 500 mg/kg i.p. single dose, vs PBS control
Experimental: Sterile solutions of O-methyl-NaMN and O-ethylNaMN were prepared by combination with phosphate buffered saline for injection into mice. Mice were injected by intraperitoneal injection at a single dosage of 500 mg/kg. All mice were weighed to achieve correct injection volume. Each group was composed of 5 mice, and mice were sacrificed at 4 hours. Control mice received only PBS. At sacrifice, mice were first injected with an anesthetic dose of ketamine to obtain blood by cardiac puncture. Then mice were euthanized and tissues harvested and frozen immediately in liquid nitrogen.
To determine tissue NAD concentrations, tissues were weighed and pulverized in liquid nitrogen. Perchloric acid (7%) was then added to pulverized tissue samples and neutralized by NaOH and 250 mM potassium phosphate buffer pH 8.5. Samples were pelleted to remove insoluble material. NAD concentrations were determined by cycling assay as published (Li et al., Methods in molecular biology 1241, 39-48, doi:10.1007/978-1-4939-1875-1_4 (2015)). […] This property is desirable, as effects expected from NAD enhancement in muscle include mitochondrial biogenesis and improved insulin sensitivity, as noted for other agents that increase NAD concentrations in this tissue^3. In fact, the extent of NAD raising exceeds those observed for other agents.

HEPG2 cells = experiment: Cellular NAD at 14 h in HEPG2 cells (cycling assay); assay type: cell-based; set-up: unit not given here
Experimental: (§1) Neu2a, HEK293, HEPG2 and C2C12 cells were cultured and the dosage of the corresponding compound was increased by amounts of 0, 100 μM, 400 μM and 800 μM for each cell line. Each experiment was performed in triplicate. Cells were incubated for a period of 14 hr. At termination of incubation, media was removed and cells were treated with trypsin to gently detach and cells counted. Cell pellets were obtained by centrifugation, and then […] of 7% perchloric acid was added to extract NAD. Extracts obtained were then neutralized by addition of NaOH and 250 mM potassium phosphate buffer pH 8.5. NAD was determined by a cycling assay that measures NAD concentrations by comparison to a standard curve (Li et al., 2015).

HEK-293 cells = experiment: NAD+ concentration in HEK-293 cells after 24 h EtNaMN (NAD+ cycling assay); assay type: cell-based, human
Experimental: HEK-293 cells were treated with 0 μM, 250 μM, and 500 μM of ((2R,3R,4S,5R)-3,4-dihydroxy-5-(3-(ethoxycarbonyl)pyridin-1-ium-1-yl)tetrahydrofuran-2-yl)methyl hydrogen phosphate (EtNaMN) at an initial density of 500,000 cells per well. After 24 h treatment, the NAD^+ concentration was determined using a known NAD^+ cycling assay (Jacobson, E. L. et al., Arch. Biochem. Biophys., 175: 627-634 (1976)). The cells were washed with PBS, counted by haemocytometry and pelleted. The cells were then treated with 7% perchloric acid, and then neutralized with 1 M NaOH and 500 mM potassium phosphate pH 8.5. NAD^+ contents were then measured on a plate reader using diaphorase and lactate dehydrogenase using Resazurin as a dye that is reduced to rezarufin (emission 560 nm). NAD^+ levels were quantitated using a standard curve using known NAD^+ concentrations. NAD^+ concentrations are determined to nmol NAD^+/10^6 cells.

HEK293 cells [2] = experiment: Cellular NAD at 14 h in HEK293 cells (cycling assay); assay type: cell-based, human; set-up: unit not given here
Experimental: as §1

C2C12 cells = experiment: Cellular NAD at 14 h in C2C12 cells (cycling assay); assay type: cell-based, murine; set-up: cellular NAD: unit not given here
Experimental: as §1

Neu2a cells = experiment: Cellular NAD at 14 h in Neu2a cells (cycling assay); assay type: cell-based; set-up: cellular NAD: unit not given here
Experimental: as §1

Neuro2a cells = experiment: Intracellular NAD+ in Neuro2a cells after NaMN or NR (diaphorase-based assay); assay type: cell-based; conditions: 1 mM, 8 h incubation, FIG. 1
Experimental: (§2) The ability of nicotinic acid mononucleotide, NaMN, to serve as an NAD^+ enhancing agent in mammalian cell lines, Neuro2a and HEK293 cells was examined after an 8 h incubation. NaMN was added to cell growth media at a concentration of 1 mM. All cell treatments were done in duplicate. Nicotinamide riboside (NR) at 1 mM concentration was performed as a positive control. Untreated cells served as negative controls. Cells were treated for the allotted time then harvested by trysin detachment and pelleting. Cells were counted by haemocytometer and then lysed by treatment with 100 μL perchloric acid (7%). Lysates were then neutralized by treatment with NaOH and K2PO4 solutions. NAD^+ concentrations were determined by a diaphorase-based assay. NAD^+ standards were also run to establish a standard curve. The results are graphically depicted in FIG. 1.

HEK293 cells [3] = experiment: Intracellular NAD+ in HEK293 cells after NaMN or NR (diaphorase-based assay); assay type: cell-based, human; conditions: HEK293, 1 mM, 8 h incubation, FIG. 1
Experimental: as §2

| Structure (SMILES) | increase in tissue NAD, blood [1] | increase in tissue NAD, kidney [1] | increase in tissue NAD, skeletal muscle [1] | cellular NAD (HEPG2 cells; HEPG2, 100 μM) | cellular NAD (HEPG2 cells; HEPG2, 400 μM) | cellular NAD (HEPG2 cells; HEPG2, 800 μM) | cellular NAD (HEK293 cells [2]; HEK293, 100 μM) | cellular NAD (HEK293 cells [2]; HEK293, 400 μM) | cellular NAD (HEK293 cells [2]; HEK293, 800 μM) | cellular NAD (C2C12 cells; C2C12, 100 μM) | cellular NAD (C2C12 cells; C2C12, 400 μM) | cellular NAD (C2C12 cells; C2C12, 800 μM) | cellular NAD (Neu2a cells; 100 μM) | cellular NAD (Neu2a cells; 400 μM) | cellular NAD (Neu2a cells; 800 μM) | intracellular NAD+ content vs untreated cells (Neuro2a cells) | intracellular NAD+ content vs untreated cells (HEK293 cells [3]) | further results |
| --- | --- | --- | --- | --- | --- | --- | --- | --- | --- | --- | --- | --- | --- | --- | --- | --- | --- | --- |
| CCOC(=O)c1ccc[n+]([C@@H]2O[C@H](COP(=O)([O-])O)[C@H](O)[C@@H]2O)c1 [O-EtNaMN, ((2R,3R,4S,5R)-3,4-dihydroxy-5-(3-(ethoxycarbonyl)pyridin-1-ium-1-yl)tetrahydrofuran-2-yl)methyl hydrogen phosphate] | increases in blood were not apparent | approximately twofold | no apparent effect | 2222 ± 99 | 2331 ± 429 | 2287 ± 181 | 1128 ± 95 | 1144 ± 132 | 1133 ± 168 | 1886 ± 183 | 1766 ± 69.5 | 2320 ± 208 | 1624 ± 24 | 1727 ± 40.8 | 1744 ± 151 |  |  | increase in tissue NAD, liver ([1]; liver): greater than twofold; NAD+ Concentration (HEK-293 cells; HEK293, 250 μM EtNaMN): 220 μM ± 42 μM; NAD+ Concentration relative to control (HEK-293 cells; HEK293, 250 μM EtNaMN): 1.29 and 1.29 ± 0.24; NAD+ Concentration (HEK-293 cells; HEK293, 500 μM EtNaMN): 270 μM ± 35 μM; NAD+ Concentration relative to control (HEK-293 cells; HEK293, 500 μM EtNaMN): 1.59 and 1.59 ± 0.21; increase in NAD concentrations vs control (C2C12 cells; 800 μM, cell line not given, figures fit C2C12): 68%; increase in cellular NAD vs control (Neu2a cells; 100 μM): ~40%; increase in cellular NAD concentrations vs control (Neu2a cells; 800 μM): 50% |
| O=C(O)c1ccc[n+]([C@@H]2O[C@H](COP(=O)(O)O)[C@@H](O)[C@H]2O)c1 [NaMN, nicotinic acid mononucleotide] |  |  |  |  |  |  |  |  |  |  |  |  |  |  |  | No intracellular increase in NAD^+ | No intracellular increase in NAD^+ |  |
| COC(=O)c1ccc[n+]([C@@H]2O[C@H](COP(=O)([O-])O)[C@H](O)[C@@H]2O)c1 [O-MeNaMN, ((2R,3R,4S,5R)-3,4-dihydroxy-5-(3-(methoxycarbonyl)pyridin-1-ium-1-yl)tetrahydrofuran-2-yl)methyl hydrogen phosphate] | Neither ethyl nor methyl derivatives appeared active as NAD enhancers in blood | ~2.5 fold | unique capability to increase skeletal muscle NAD concentrations | 2227 ± 280 | 1663 ± 61 | 2383 ± 155 | 1178 ± 65 | 947 ± 101 | 1440 ± 204 | 2864 ± 565 | 2596 ± 572 | 2574 ± 355 | 1204 ± 158 | 1523 ± 145 | 2125 ± 187 |  |  | increase in cellular NAD concentrations vs control (C2C12 cells; all concentrations tested (100, 400, 800 μM), cell line not given, figures fit C2C12): at least 70%; increase in cellular NAD concentrations vs control (fold, in words) (Neu2a cells; 800 μM): more than two fold |
| NC(=O)c1ccc[n+]([C@@H]2O[C@H](CO)[C@@H](O)[C@H]2O)c1 [NR, Nicotinamide riboside] |  |  |  |  |  |  |  |  |  |  |  |  |  |  |  | increased NAD^+ contents in cells | increased NAD^+ contents in cells |  |
